Test results as given in PubChem BioAssay AID248 (DTP/NCI, 2004).
“And” between values parts separate entries of the source, which are not always exact repeats. Equal entries are not always repeated. Inconclusive results and toxic doses are left out. Rule as the data show it: active = T/C of 150% or more; inactive = T/C below 125%.

System: L1210 leukemia ip in BDF1 mice, survival T/C
Test: NCI In Vivo Anticancer Drug Screen. Data for tumor model L1210 Leukemia (intraperitoneal) in B6D2F1 (BDF1) mice
Settings: endpoint: mean survival time, higher = longer survival
In short: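 Antitumor effect is assessed in tumor-bearing animals. Survival in the compound arm is compared with a vehicle-dosed control arm and expressed as their quotient.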

[1] = dose: 50.0 mg/kg/injection, schedule: Q01DX009 (ip), vehicle: saline with Tween-80
[2] = dose: 100.0 mg/kg/injection, schedule: Q01DX001 (ip), vehicle: other
[3] = dose: 100.0 mg/kg/injection, schedule: Q04DX003 (ip), vehicle: Klucel (hydroxypropylcellulose) (HPC)
[4] = dose: 200.0 mg/kg/injection, schedule: Q01DX001 (ip), vehicle: other
[5] = dose: 200.0 mg/kg/injection, schedule: Q04DX003 (ip), vehicle: Klucel (hydroxypropylcellulose) (HPC)
[6] = dose: 400.0 mg/kg/injection, schedule: Q04DX003 (ip), vehicle: Klucel (hydroxypropylcellulose) (HPC)
[7] = dose: 200.0 mg/kg/injection, schedule: Q01DX009 (ip), vehicle: Klucel (hydroxypropylcellulose) (HPC)
[8] = dose: 400.0 mg/kg/injection, schedule: Q01DX009 (ip), vehicle: Klucel (hydroxypropylcellulose) (HPC)
[9] = dose: 12.5 mg/kg/injection, schedule: Q01DX009 (ip), vehicle: saline with Tween-80
[10] = dose: 25.0 mg/kg/injection, schedule: Q01DX009 (ip), vehicle: Klucel (hydroxypropylcellulose) (HPC)
[11] = dose: 25.0 mg/kg/injection, schedule: Q01DX009 (ip), vehicle: saline with Tween-80
[12] = dose: 400.0 mg/kg/injection, schedule: Q01DX001 (ip), vehicle: Klucel (hydroxypropylcellulose) (HPC)
[13] = dose: 100.0 mg/kg/injection, schedule: Q04DX002 (ip), vehicle: Klucel (hydroxypropylcellulose) (HPC)
[14] = dose: 200.0 mg/kg/injection, schedule: Q04DX002 (ip), vehicle: Klucel (hydroxypropylcellulose) (HPC)
[15] = dose: 400.0 mg/kg/injection, schedule: Q04DX002 (ip), vehicle: Klucel (hydroxypropylcellulose) (HPC)
[16] = dose: 100.0 mg/kg/injection, schedule: Q01DX009 (ip), vehicle: Klucel (hydroxypropylcellulose) (HPC)
[17] = dose: 100.0 mg/kg/injection, schedule: Q01DX009 (ip), vehicle: saline
[18] = dose: 200.0 mg/kg/injection, schedule: Q01DX009 (ip), vehicle: saline
[19] = dose: 400.0 mg/kg/injection, schedule: Q01DX009 (ip), vehicle: saline

Measured: T/C

NC(c1ccccc1)C(N)c1ccccc1 (centres undefined)
inactive: [1] 104 % of control | dose: 100.0 mg/kg/injection, schedule: Q01DX009 (ip), vehicle: saline with Tween-80 102 % of control and 92 % of control | dose: 100.0 mg/kg/injection, schedule: Q04DX003 (ip), vehicle: other 91 % of control | dose: 100.0 mg/kg/injection, schedule: Q04DX003 (ip), vehicle: saline with Tween-80 98 % of control | dose: 200.0 mg/kg/injection, schedule: Q01DX009 (ip), vehicle: saline with Tween-80 95 % of control and 110 % of control | dose: 200.0 mg/kg/injection, schedule: Q04DX003 (ip), vehicle: saline with Tween-80 96 % of control | dose: 400.0 mg/kg/injection, schedule: Q01DX009 (ip), vehicle: saline with Tween-80 98 % of control

C=CC[P+](C)(c1ccccc1)c1ccccc1
inactive: dose: 3.13 mg/kg/injection, schedule: Q01DX009 (ip), vehicle: saline 106 % of control

O=C(O)CC1CCCCC1NC(=O)c1ccccc1 (centres undefined)
inactive: dose: 100.0 mg/kg/injection, schedule: Q01DX001 (ip), vehicle: saline with Tween-80 100 % of control | dose: 200.0 mg/kg/injection, schedule: Q01DX001 (ip), vehicle: saline with Tween-80 94 % of control | dose: 400.0 mg/kg/injection, schedule: Q01DX001 (ip), vehicle: saline with Tween-80 95 % of control

O=S(=O)(CCCc1ccccc1)c1ccccc1
inactive: dose: 50.0 mg/kg/injection, schedule: Q01DX001 (ip), vehicle: other 102 % of control | [2] 102 % of control | [3] 98 % of control | [4] 104 % of control | [5] 100 % of control | dose: 400.0 mg/kg/injection, schedule: Q01DX001 (ip), vehicle: other 116 % of control | [6] 102 % of control

O=S(=O)(O)CNc1cc(Cl)cc(Cl)c1
inactive: [3] 90 % of control | [7] 93 % of control | [5] 88 % of control | [8] 91 % of control | [6] 92 % of control

NC(=Nc1ccccc1)Nc1ccccc1
inactive: dose: 6.25 mg/kg/injection, schedule: Q01DX009 (ip), vehicle: Klucel (hydroxypropylcellulose) (HPC) 101 % of control | dose: 12.5 mg/kg/injection, schedule: Q01DX009 (ip), vehicle: Klucel (hydroxypropylcellulose) (HPC) 101 % of control | [9] 97 % of control | [10] 89 % of control | [11] 102 % of control | dose: 35.0 mg/kg/injection, schedule: Q01DX009 (ip), vehicle: saline 101 % of control | [1] 97 % of control

CCCCN(C)N=Nc1c(Cl)cc(Cl)cc1C(N)=O
active: [6] 181 % of control
inactive: [2] 106 % of control | [3] 106 % of control | [4] 107 % of control | [7] 95 % of control | dose: 264.0 mg/kg/injection, schedule: Q01DX001 (ip), vehicle: Klucel (hydroxypropylcellulose) (HPC) 114 % of control | [12] 124 % of control

C=CCCCCCCCCC(=O)Nc1ccc(Cl)cc1C(=O)c1ccccc1
inactive: [13] 95 % of control | [14] 92 % of control | [15] 89 % of control

CC(C)CCOC(=O)C(O)c1ccccc1 (centres undefined)
inactive: [16] 98 % of control | [3] 100 % of control | [7] 92 % of control | [5] 88 % of control | [8] 95 % of control | [6] 91 % of control

O=C(Nc1cccc(Cl)c1Cl)Oc1cccc2ccccc12
inactive: [13] 101 % of control | [14] 108 % of control | [15] 114 % of control

COc1ccc(N2CCN(c3c4c(nc5ccccc35)CCCCC4)CC2)cc1
inactive: dose: 100.0 mg/kg/injection, schedule: Q01DX001 (ip), vehicle: saline 95 % of control | dose: 200.0 mg/kg/injection, schedule: Q01DX001 (ip), vehicle: saline 106 % of control | dose: 400.0 mg/kg/injection, schedule: Q01DX001 (ip), vehicle: saline 101 % of control

CCS(=O)(=O)CS(=O)(=O)C(C)(C)C
inactive: dose: 100.0 mg/kg/injection, schedule: Q01DX001 (ip), vehicle: Klucel (hydroxypropylcellulose) (HPC) 98 % of control | dose: 200.0 mg/kg/injection, schedule: Q01DX001 (ip), vehicle: Klucel (hydroxypropylcellulose) (HPC) 91 % of control | [12] 94 % of control

CN(C)C(=O)NC1CCc2ccc([N+](=O)[O-])cc21 (centres undefined)
inactive: dose: 100.0 mg/kg/injection, schedule: Q04DX002 (ip), vehicle: saline with Tween-80 97 % of control | dose: 200.0 mg/kg/injection, schedule: Q04DX002 (ip), vehicle: saline with Tween-80 108 % of control | dose: 400.0 mg/kg/injection, schedule: Q04DX002 (ip), vehicle: saline with Tween-80 119 % of control

O=C1OC(c2ccc([N+](=O)[O-])cc2)Sc2ccccc21 (centres undefined)
inactive: [17] 98 % of control | dose: 100.0 mg/kg/injection, schedule: Q04DX003 (ip), vehicle: saline 106 % of control | [18] 94 % of control | dose: 200.0 mg/kg/injection, schedule: Q04DX003 (ip), vehicle: saline 108 % of control | [19] 91 % of control | dose: 400.0 mg/kg/injection, schedule: Q04DX003 (ip), vehicle: saline 97 % of control

CC(=O)Nc1ccc(NC(=O)Nc2ccc(F)c(Cl)c2)cc1
inactive: [3] 92 % of control | [5] 97 % of control | [6] 95 % of control

Cc1cc(C)c(S(=O)(=O)ON=C2c3ccccc3-c3ccccc32)c(C)c1
inactive: [16] 107 % of control | [3] 105 % of control | [7] 104 % of control | [5] 110 % of control | [8] 101 % of control | [6] 97 % of control

O=C(Nc1ccc(C2=NCCN2)cc1)c1cncc(C(=O)Nc2ccc(C3=NCCN3)cc2)n1
active: dose: 125.0 mg/kg/injection, schedule: Q01DX Z (ip), vehicle: carboxymethylcellulose (CMC) 168 % of control | dose: 250.0 mg/kg/injection, schedule: Q01DX Z (ip), vehicle: carboxymethylcellulose (CMC) 227 % of control
inactive: dose: 31.0 mg/kg/injection, schedule: Q01DX Z (ip), vehicle: carboxymethylcellulose (CMC) 109 % of control | dose: 62.5 mg/kg/injection, schedule: Q01DX Z (oral), vehicle: water 94 % of control | dose: 125.0 mg/kg/injection, schedule: Q01DX Z (oral), vehicle: water 100 % of control | dose: 250.0 mg/kg/injection, schedule: Q01DX Z (oral), vehicle: water 97 % of control | dose: 500.0 mg/kg/injection, schedule: Q01DX Z (oral), vehicle: water 97 % of control

OCCOc1ccc(-c2ccccc2)cc1
inactive: dose: 75.0 mg/kg/injection, schedule: Q04DX002 (ip), vehicle: Klucel (hydroxypropylcellulose) (HPC) 101 % of control | dose: 150.0 mg/kg/injection, schedule: Q04DX002 (ip), vehicle: Klucel (hydroxypropylcellulose) (HPC) 105 % of control | dose: 300.0 mg/kg/injection, schedule: Q04DX002 (ip), vehicle: Klucel (hydroxypropylcellulose) (HPC) 108 % of control

CC(C)=CC(=O)OC1C2C(C)C(=O)OC2C(O)C(C)C2C=CC(=O)C21C (centres undefined)
inactive: dose: 6.25 mg/kg/injection, schedule: Q01DX009 (ip), vehicle: saline with Tween-80 95 % of control | [9] 97 % of control | [10] 97 % of control | [11] 103 % of control | dose: 25.0 mg/kg/injection, schedule: Q01DX009 (ip), vehicle: saline 93 % of control | dose: 50.0 mg/kg/injection, schedule: Q01DX009 (ip), vehicle: Klucel (hydroxypropylcellulose) (HPC) 94 % of control | [1] 103 % of control | dose: 50.0 mg/kg/injection, schedule: Q01DX009 (ip), vehicle: saline 100 % of control

COc1cc(Cl)ccc1NC(=O)OCCc1ccccn1
inactive: [17] 97 % of control | [18] 100 % of control | [19] 97 % of control

CCN(CC)CCCC(C)NC(=O)c1ccc(N(C)C)nc1 (centres undefined)
inactive: dose: 25.0 mg/kg/injection, schedule: Q01DX009 (ip), vehicle: water 97 % of control | dose: 50.0 mg/kg/injection, schedule: Q01DX009 (ip), vehicle: water 104 % of control | dose: 100.0 mg/kg/injection, schedule: Q01DX009 (ip), vehicle: water 101 % of control | dose: 200.0 mg/kg/injection, schedule: Q01DX009 (ip), vehicle: water 104 % of control | dose: 400.0 mg/kg/injection, schedule: Q01DX009 (ip), vehicle: water 101 % of control
